This note sets out measurements from article PMC3443622 (2012).

Structures are written as SMILES.

Series [1] addresses T1, ABCG2 (Homo sapiens, UniProt Q9UNQ0).
T1 sequence (Q9UNQ0 1-655): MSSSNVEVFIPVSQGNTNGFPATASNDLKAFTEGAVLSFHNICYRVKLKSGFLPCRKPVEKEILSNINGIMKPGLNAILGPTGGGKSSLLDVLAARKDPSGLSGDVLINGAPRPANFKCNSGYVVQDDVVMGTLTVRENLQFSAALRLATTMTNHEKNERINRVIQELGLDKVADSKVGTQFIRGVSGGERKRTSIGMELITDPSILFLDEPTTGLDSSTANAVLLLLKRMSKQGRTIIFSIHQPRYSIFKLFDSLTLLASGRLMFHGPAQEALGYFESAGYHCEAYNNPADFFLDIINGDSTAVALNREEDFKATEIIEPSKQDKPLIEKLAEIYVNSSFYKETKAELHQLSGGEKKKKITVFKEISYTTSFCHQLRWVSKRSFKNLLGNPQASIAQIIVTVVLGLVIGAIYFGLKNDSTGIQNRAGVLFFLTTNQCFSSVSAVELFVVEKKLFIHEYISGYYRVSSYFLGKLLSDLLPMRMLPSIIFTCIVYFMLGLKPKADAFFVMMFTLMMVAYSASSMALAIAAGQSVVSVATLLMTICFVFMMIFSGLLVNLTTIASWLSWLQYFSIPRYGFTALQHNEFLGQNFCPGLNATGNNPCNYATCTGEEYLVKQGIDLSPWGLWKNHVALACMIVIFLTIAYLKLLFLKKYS
The format is cell-based.

For series [2], the target named is T1, ABCG2. In words: intracellular accumulation in ABCG2-transfected HEK293 cells. The format is cell-based.

Regarding `CN(Cc1cnc2nc(N)nc(N)c2n1)c1ccc(C(=O)N[C@@H](CCC(=O)O)C(=O)O)cc1` [[3H]-methotrexate], on ABCG2 [1], the “ATP-dependent uptake into membrane vesicles” value is “using membrane vesicles to determine the rate of ATP-dependent uptake of [^3H]-methotrexate, another substrate of ABCG2”. With `O=C1c2c(O)ccc(O)c2C(=O)c2c(NCCNCCO)ccc(NCCNCCO)c21` [[3H]-mitoxantrone], the “intracellular accumulation in ABCG2-transfected HEK293 cells” value at ABCG2 [2] is “the intracellular levels of [^3H]-mitoxantrone, a known substrate of ABCG2 was measured in the presence or absence of VKJP1 or VKJP3”.
